Laboratory results: patent publication US10821100B2, “Triazolone compounds as mPGES-1 inhibitors” (Glenmark Pharmaceuticals S.A., priority 2012, dated 2020)

Molecular target: T1, Recombinant human mPGES-1 (Homo sapiens, UniProt O14684)
T1 construct: made in house; host or cells: CHO cells (crude microsomal fractions)
T1 sequence (O14684 1-152): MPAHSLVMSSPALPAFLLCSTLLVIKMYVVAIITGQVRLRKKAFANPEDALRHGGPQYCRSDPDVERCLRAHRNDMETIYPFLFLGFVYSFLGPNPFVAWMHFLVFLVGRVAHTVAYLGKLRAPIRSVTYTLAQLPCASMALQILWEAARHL
Experiment: In-vitro screening of mPGES-1 inhibitors (inhibition of PGE2 formation from PGH2, HTRF detection)
Format: biochemical
Conditions: mPGES-1 enzyme; for inhibition at 1 µM: 1 μM test compound, read-out: Percentage inhibition at 1 μM; for inhibition at 1 µM / inhibition at 10 µM: crude microsomal fractions; for inhibition at 10 µM: 10 μM test compound, read-out: Percentage inhibition at 10 μM; for IC50: class symbols
Summary of the method: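 Crude CHO-expressed microsomes (40–60 μg/mL protein) preincubated 10 min with compound in 0.1 M potassium phosphate/2 mM EDTA containing 2.5 mM GSH, 0.5% DMSO final. PGH2 (15 μM) reacted 1 min, stopped with stannous chloride. PGE2 quantified by HTRF, IC50 from nonlinear regression of percent inhibition.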

SMILES | inhibition at 1 µM [%] | inhibition at 10 µM [%] | IC50 [nM]
CC(C)(C)C(=O)NCc1ccc(Cl)c(-c2nn(-c3ccc(C(F)(F)F)nc3)c(=O)[nH]2)c1 [Example-138, N-(4-Chloro-3-(1-(6-(trifluoromethyl)pyridin-3-yl)-4,5-dihydro-5-oxo-1H-1,2,4-triazol-3-yl)benzyl)pivalamide] | 93.3 | 92.9 | < 50
CC(C)(C)C(=O)NCc1ccc(Cl)c(-c2nn(-c3ccc(F)c(Cl)c3)c(=O)[nH]2)c1 [Example-139, N-(4-Chloro-3-(1-(3-chloro-4-fluorophenyl)-4,5-dihydro-5-oxo-1H-1,2,4-triazol-3-yl)benzyl)pivalamide] | 93.9 | 99.1 | < 50
Cc1ccc(-n2nc(-c3cc(CNC(=O)C(C)(C)C)ccc3Cl)[nH]c2=O)cc1Cl [Example-140, N-(4-Chloro-3-(1-(3-chloro-4-methylphenyl)-4,5-dihydro-5-oxo-1H-1,2,4-triazol-3-yl)benzyl)pivalamide] | 97.4 | 98.1 | < 50
CC(C)(C)C(=O)NCc1ccc(Cl)c(-n2nc(-c3ccc(C#CC4CC4)cc3)[nH]c2=O)c1 [Example-141, N-(4-Chloro-3-(3-(4-(2-cyclopropylethynyl)phenyl)-4,5-dihydro-5-oxo-1,2,4-triazol-1-yl)benzyl)pivalamide] | 97.6 | 97.5 | < 50
CC(C)(C)C(=O)NCc1ccc(Cl)c(-c2nn(-c3cccc(C(F)(F)F)c3)c(=O)[nH]2)c1 [Example-142, N-(4-Chloro-3-(1-(3-(trifluoromethyl)phenyl)-4,5-dihydro-5-oxo-1H-1,2,4-triazol-3-yl)benzyl)pivalamide] | 97.2 | 94 | < 50
CC(C)C(=O)NCc1ccc(Cl)c(-n2nc(-c3ccc(C#CC(C)(C)C)cc3)[nH]c2=O)c1 [Example-143, N-(4-Chloro-3-(4,5-dihydro-3-(4-(3,3-dimethylbut-1-ynyl)phenyl)-5-oxo-1,2,4-triazol-1-yl)benzyl)isobutyramide] | 99.2 | 90.7 | < 50
CC(C)C(=O)NCc1ccc(Cl)c(-c2nn(-c3ccc(C(F)(F)F)cc3)c(=O)[nH]2)c1 [Example-144, N-(4-Chloro-3-(1-(4-(trifluoromethyl)phenyl)-4,5-dihydro-5-oxo-1H-1,2,4-triazol-3-yl)benzyl)isobutyramide] | 97.5 | 92.7 | < 50
CC(C)(C)C(=O)NCc1ccc(Cl)c(-n2nc(-c3ccc(C(F)(F)F)cc3)[nH]c2=O)c1 [Example-145, N-(4-Chloro-3-(3-(4-(trifluoromethyl)phenyl)-4,5-dihydro-5-oxo-1,2,4-triazol-1-yl)benzyl)pivalamide] | 94.2 | 98.9 | < 50
CC(C)(C)C(=O)NCc1ccc(Cl)c(-n2nc(-c3ccc(C(F)(F)F)c(F)c3)[nH]c2=O)c1 [Example-146, N-(4-Chloro-3-(3-(3-fluoro-4-(trifluoromethyl)phenyl)-4,5-dihydro-5-oxo-1,2,4-triazol-1-yl)benzyl)pivalamide] | 100 | 99.7 | < 50
CC(C)(C)C(=O)NCc1ccc(Cl)c(-n2nc(-c3ccc(Cl)c(C(F)(F)F)c3)[nH]c2=O)c1 [Example-147, N-(4-Chloro-3-(3-(4-chloro-3-(trifluoromethyl)phenyl)-4,5-dihydro-5-oxo-1,2,4-triazol-1-yl)benzyl)pivalamide] | 98.6 | 97.6 | < 50
CC(C)(C)C(=O)NCc1ccc(Cl)c(-n2nc(-c3ccc(F)c(C(F)(F)F)c3)[nH]c2=O)c1 [Example-148, N-(4-Chloro-3-(3-(4-fluoro-3-(trifluoromethyl)phenyl)-4,5-dihydro-5-oxo-1,2,4-triazol-1-yl)benzyl)pivalamide] | 98.9 | 97.8 | < 50
CC(C)C(=O)NCc1ccc(Cl)c(-n2nc(-c3ccc(C#CC(C)(C)C)c(F)c3)[nH]c2=O)c1 [Example-149, N-(4-Chloro-3-(3-(3-fluoro-4-(3,3-dimethylbut-1-ynyl)phenyl)-4,5-dihydro-5-oxo-1,2,4-triazol-1-yl)benzyl)isobutyramide] | 98.3 | 94.6 | < 50
CC(C)C(=O)NCc1ccc(Cl)c(-n2nc(-c3ccc(C#CC4CC4)c(F)c3)[nH]c2=O)c1 [Example-150, N-(4-Chloro-3-(3-(4-(2-cyclopropylethynyl)-3-fluorophenyl)-4,5-dihydro-5-oxo-1,2,4-triazol-1-yl)benzyl)isobutyramide] | 98.4 | 99.5 | < 50
CC(C)(C)C(=O)NCc1ccc(Cl)c(-n2nc(-c3ccc(CN4CCCC4)cc3)[nH]c2=O)c1 [Example-151, N-(4-Chloro-3-(4,5-dihydro-5-oxo-3-(4-((pyrrolidin-1-yl)methyl)phenyl)-1,2,4-triazol-1-yl)benzyl)pivalamide] | 65 | 95.9 | 
CC(C)(C)C(=O)NCc1ccc(Cl)c(-n2nc(-c3ccc(COCC(F)(F)F)cc3)[nH]c2=O)c1 [Example-152, N-(3-(3-(4-((2,2,2-Trifluoroethoxy)methyl)phenyl)-4,5-dihydro-5-oxo-1,2,4-triazol-1-yl)-4-chlorobenzyl)pivalamide] | 96 | 100 | < 50
CC(C)c1nnc(-c2ccc(-c3nn(-c4cc(CNC(=O)C(C)(C)C)ccc4Cl)c(=O)[nH]3)cc2)o1 [Example-153, N-(4-Chloro-3-(4,5-dihydro-3-(4-(5-isopropyl-1,3,4-oxadiazol-2-yl)phenyl)-5-oxo-1,2,4-triazol-1-yl)benzyl)pivalamide] | 93.9 | 99.7 | 50 to 100
Cc1cc(-n2nc(-c3cc(CNC(=O)C(C)(C)C)ccc3Cl)[nH]c2=O)ccc1Cl [Example-154, N-(4-Chloro-3-(1-(4-chloro-3-methylphenyl)-4,5-dihydro-5-oxo-1H-1,2,4-triazol-3-yl)benzyl)pivalamide] | 95.2 | 100 | < 50
Cc1cc(-n2nc(-c3cc(CNC(=O)C(C)C)ccc3Cl)[nH]c2=O)ccc1Cl [Example-155, N-(4-Chloro-3-(1-(4-chloro-3-methylphenyl)-4,5-dihydro-5-oxo-1H-1,2,4-triazol-3-yl)benzyl)isobutyramide] | 99.7 | 97.1 | < 50
CC(C)(C)C(=O)NCc1ccc(Cl)c(-c2nn(-c3cc(F)cc(C(F)(F)F)c3)c(=O)[nH]2)c1 [Example-156, N-(4-Chloro-3-(1-(3-fluoro-5-(trifluoromethyl)phenyl)-4,5-dihydro-5-oxo-1H-1,2,4-triazol-3-yl)benzyl)pivalamide] | 98.5 | 99.2 | < 50
CC(C)(C)C(=O)NCc1ccc(Cl)c(-c2nn(-c3ccc(Cl)c(C(F)(F)F)c3)c(=O)[nH]2)c1 [Example-157, N-(4-Chloro-3-(1-(4-chloro-3-(trifluoromethyl)phenyl)-4,5-dihydro-5-oxo-1H-1,2,4-triazol-3-yl)benzyl)pivalamide] | 98.5 | 96.5 | < 50
Cc1ccc(-n2nc(-c3cc(CNC(=O)C(C)(C)C)ccc3Cl)[nH]c2=O)cc1C(F)(F)F [Example-158, N-(4-Chloro-3-(1-(3-(trifluoromethyl)-4-methylphenyl)-4,5-dihydro-5-oxo-1H-1,2,4-triazol-3-yl)benzyl)pivalamide] | 99 | 99.7 | < 50
Cc1cc(C(F)(F)F)ccc1-n1nc(-c2cc(CNC(=O)C(C)(C)C)ccc2Cl)[nH]c1=O [Example-159, N-(4-Chloro-3-(1-(4-(trifluoromethyl)-2-methylphenyl)-4,5-dihydro-5-oxo-1H-1,2,4-triazol-3-yl)benzyl)pivalamide] | 75.4 | 96.8 | > 100
CC(C)(C)C(=O)NCc1ccc(Cl)c(-c2nn(-c3ccc(C(F)(F)F)c(F)c3)c(=O)[nH]2)c1 [Example-160, N-(4-Chloro-3-(1-(3-fluoro-4-(trifluoromethyl)phenyl)-4,5-dihydro-5-oxo-1H-1,2,4-triazol-3-yl)benzyl)pivalamide] | 96.6 | 97.3 | < 50
CC(C)C(=O)NCc1ccc(Cl)c(-c2nn(-c3ccc(C(F)(F)F)c(F)c3)c(=O)[nH]2)c1 [Example-161, N-(4-Chloro-3-(1-(3-fluoro-4-(trifluoromethyl)phenyl)-4,5-dihydro-5-oxo-1H-1,2,4-triazol-3-yl)benzyl)isobutyramide] | 98 | 99.4 | < 50
CC(C)S(=O)(=O)NCc1ccc(Cl)c(-c2nn(-c3ccc(C(F)(F)F)cc3)c(=O)[nH]2)c1 [Example-162, N-(4-Chloro-3-{5-oxo-1-[4-(trifluoromethyl)phenyl]-4,5-dihydro-1H-1,2,4-triazol-3-yl}benzyl)propane-2-sulfonamide] | 99.3 | 99.3 | < 50
CC(C)(C)C(=O)NCc1ccc(Cl)c(-c2nn(-c3ccc(C(F)(F)F)cc3F)c(=O)[nH]2)c1 [Example-163, N-(4-Chloro-3-(1-(2-fluoro-4-(trifluoromethyl)phenyl)-4,5-dihydro-5-oxo-1H-1,2,4-triazol-3-yl)benzyl)pivalamide] | 91.8 | 98.7 | < 50
